B1: fibroblast growth factor 7: growth factor from Sino Biological Inc. (protein, UniProt P21781 32-194, looked up)
Fibroblast growth factor 7: CNDMTPEQMATNVNCSSPERHTRSYDYMEGGDIRVRRLFCRTQWYLRIDKRGKVKGTQEMKNNYNIMEIRTVAVGIVAIKGVESEFYLAMNKEGKLYAKKECNEDCNFKELILENHYNTYASAKWTHNGGEMFVALNQKGIPVRGKKTKKEQKTAHFLPMAIT

Tested on: primary lung cancer cells (No. B5)
Experiment: Effects of different factors added to basic medium BM on proliferation of primary lung cancer cells (cell count after 12 days)
Assay type: cell-based, human
Conditions: factor added alone to BM at the concentrations of Table 3; 12 days culture; FIGS. 1A-D
Method: Extracellular matrix gel (Matrigel®) (manufactured by BD Biosciences) was diluted with serum-free DMEM/F12 medium at a ratio of 1:100 to prepare an extracellular matrix diluent. The extracellular matrix diluent was added to a 48-well culture plate with 500 μl/well to completely cover the bottom of the wells of the culture plate. The culture plate was let stand for 1 hour in a 37° C. incubator. After 1 hour, the extracellular matrix diluent was removed to provide a Matrigel-coated plate.
Preparation of basic medium (abbreviated as BM): BM was prepared by adding 0.2 vol. % of Primocin (purchased from Invivogen, with a concentration of 50 mg/ml) to the commercial DMEM/F-12 medium to provide a final concentration of 100 μg/ml.
Next, different kinds and concentrations of additive factors (Table 3) were added to the basic medium (BM), so as to prepare culture mediums for lung cancer epithelial cells containing different additive components.
The culture mediums with different components were added at a volume of 500 μl/well to 48-well plates which were coated with extracellular matrix gel (Matrigel). Lung cancer cells (No. B5) isolated from lung cancer tissues according to the same method as described in Example 1 were inoculated at a cell density of 2×10^4 cells/cm^2 in the above-mentioned 48-well culture plates which were coated with Matrigel. After surface disinfection, the plates were placed in a 37° C., 5% CO2 incubator (purchased from Thermo Fisher), and the same number of freshly isolated lung cancer tumor cells (No. B5) were cultured under different medium formulations. The culture mediums were replaced every 4 days after the start of culture. After 12 days of culture, cell counts were performed. The basic medium (BM) without addition of any additive was used as a control. The results were shown in FIGS. 1A-D. The ordinate in the figures represents the ratio of the number of cells obtained after culture in different mediums to the number of cells obtained after culture in basic medium BM.

Molecule | effect on cell proliferation (ratio of cell number to that in basic medium BM)
CN1C(=O)C(c2c(F)cccc2F)N(C)c2nc(Nc3ccc(S(N)(=O)=O)cc3)ncc21 (stereo not shown) [Compound 1, 4-((7-(2,6-difluorophenyl)-5,8-dimethyl-6-oxo-5,6,7,8-tetrahydropteridin-2-yl)amino)benzsulfamide] | certain promoting effects on cell proliferation
Cc1cccc(-c2nn(C(=S)Nc3ccccc3)cc2-c2ccnc3ccccc23)n1 [Compound A83-01, A83-01, reference compound] | certain promoting effects on cell proliferation
C[C@@H](N)[C@H]1CC[C@H](C(=O)Nc2ccncc2)CC1 [Compound Y27632, Y27632, reference compound] | certain promoting effects on cell proliferation
hepatocyte growth factor: growth factor from Sino Biological Inc. | certain promoting effects on cell proliferation
insulin-like growth factor 1: growth factor from Sino Biological Inc. | certain promoting effects on cell proliferation
interleukin 6: cytokine from Sino Biological Inc. | certain promoting effects on cell proliferation
B1 | certain promoting effects on cell proliferation

Source: patent US20240344020A1, “CULTURE MEDIUM FOR LUNG CANCER EPITHELIAL CELLS, CULTURE METHOD, AND APPLICATION THEREOF” (PRECEDO PHARMACEUTICALS CO., LTD, priority 2021, published 2024)
